Consider 12 molecules from US5486514A, “Carbamate derivatives” (Glaxo SpA, priority 1992, dated 1996).

Molecules are shown by their SMILES.

For one assay, the target named is CCK-A receptor. Kind of assay: CCK receptor binding, CCK-A receptor (Pancreas Assay). Here is the method: (§1) The greater affinity of the compounds of the invention for the CCK-B receptor over the CCK-A receptor has also been established using the CCK receptor binding assays described by G Dal Fornos et al., J. Pharmcol. Exp & Ther. 261, 1056-1063, 1992.
(§2) The binding affinity of the compounds of the invention for the CCK-A receptor (Pancreas Assay) and CCK-B receptor (guinea pig cortex assay) was determined using the procedure of G Dal Forno et al J. Pharmacol. Exp & Ther. 261--1056-1063. The pKi values determined with representative compounds of invention were as follows: […]

The target of another assay is T1, CCK-B receptor (Cavia porcellus, UniProt H0VZC5).
T1 construct: CCK-B receptor (guinea pig cortex assay); from tissue; host or cells: guinea pig cortex
T1 sequence (H0VZC5 entry or part of it): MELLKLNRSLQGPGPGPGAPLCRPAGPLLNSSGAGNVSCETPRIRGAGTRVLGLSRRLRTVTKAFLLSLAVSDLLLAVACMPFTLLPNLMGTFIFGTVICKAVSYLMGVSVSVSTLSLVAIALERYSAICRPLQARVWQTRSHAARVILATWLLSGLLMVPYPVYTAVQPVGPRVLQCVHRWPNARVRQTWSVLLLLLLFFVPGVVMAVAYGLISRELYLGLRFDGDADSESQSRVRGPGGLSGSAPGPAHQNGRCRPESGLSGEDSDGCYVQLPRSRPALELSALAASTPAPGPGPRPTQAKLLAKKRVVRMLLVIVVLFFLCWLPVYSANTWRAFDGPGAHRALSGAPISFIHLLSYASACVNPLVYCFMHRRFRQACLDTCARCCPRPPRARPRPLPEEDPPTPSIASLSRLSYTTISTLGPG
Kind of assay: CCK receptor binding, CCK-B receptor (guinea pig cortex assay). The following applies: read-out: pKi CCK-B (converted). Here is the method: as §1, §2

`CN(C)c1cccc(OC(=O)NC2C(=O)N(CC34CC5CC(CC(C5)C3)C4)c3ccccc3N(c3ccccc3)C2=O)c1` (stereo not drawn) [Example 20]: the “pKi CCK-A” value on CCK-A receptor stood at 5.48. Also, the Ki at CCK-B receptor was 12.3 nM.

For `COc1cccc(OC(=O)NC2C(=O)N(CCC(C)C)c3cc(Cl)c(Cl)cc3N(c3ccccc3)C2=O)c1` (racemic) [Example 25, 7,8-Dichloro-2,4-dioxo-3-(3-methoxyphenyloxycarbonyl)amino-1-(3-methyl-1-butyl)-5-phenyl-2,3,4,5-tetrahydro-1H-1,5-benzodiazepine], the “pKi CCK-A” value at CCK-A receptor came out at 5.37. Besides, the Ki on CCK-B receptor is 6.31 nM.

As for `CN(C)c1cccc(OC(=O)NC2C(=O)N(CCC(C)(C)C)c3ccccc3N(c3ccccc3F)C2=O)c1` (racemic) [Example 9, 3-[3-(N,N-dimethylamino)phenyloxycarbonylamino]-1-(3,3-dimethylbut-1-yl)-2,4-dioxo-5-(2-fluorophenyl)-2,3,4,5-tetrahydro-1H-1,5-benzodiazepine], at CCK-A receptor, the “pKi CCK-A” value came to 6.75. Also, on CCK-B receptor, the Ki is 1.02 nM.

Regarding `CC(C)CCN1C(=O)C(NC(=O)Oc2cccc(N(C)C)c2)C(=O)N(c2ccccc2)c2cc(Cl)c(Cl)cc21` (racemic) [Example 12, 7,8-Dichloro-3[3-(N,N-dimethylamino)phenyloxycarbonylamino]-2,4-dioxo-1-(3-methylbut-1-yl)-5-phenyl-2,3,4,5-tetrahydro-1H-1,5-benzodiazepine], on CCK-A receptor, the “pKi CCK-A” value is given as 5.49. Moreover, the Ki on CCK-B receptor is 7.41 nM.

For the molecule `CC(C)CCN1C(=O)C(NC(=O)Oc2ccccc2)C(=O)N(c2ccccc2)c2ccccc21` (racemic) [Example 1, 2,4-Dioxo-1-(3-methylbut-1-yl)-5-phenyl-3-(phenyloxycarbonylamino)-2,3,4,5-tetrahydro-1H-1,5-benzodiazepine], the “pKi CCK-A” value at CCK-A receptor is 5.29. Besides, the Ki on CCK-B receptor is 21.4 nM.

On to `CC(C)CCN1C(=O)C(NC(=O)Oc2cccc(N(C)C)c2)C(=O)N(c2ccccc2)c2ccccc21` (stereo not drawn) [Example 3], for which the “pKi CCK-A” value at CCK-A receptor turned out to be 6.24. Also, on CCK-B receptor, the Ki is 3.16 nM.

As for `COc1cccc(OC(=O)NC2C(=O)N(CCC(C)C)c3cc(Cl)ccc3N(c3ccccc3)C2=O)c1` (racemic) [Example 38, 8-Chloro-2,4-dioxo-3-(3-methoxyphenyloxycarbonyl)amino-1-(3-methyl-1-butyl)-5-phenyl-2,3,4,5-tetrahydro-1H-1,5-benzodiazepine], at CCK-A receptor, the “pKi CCK-A” value is reported as 5.35. At CCK-B receptor, the Ki was 20 nM.

Take `CC(C)CCN1C(=O)C(NC(=O)Oc2cccc(N(C)C)c2)C(=O)N(c2ccccc2)c2ccc(Cl)cc21` (racemic) [Example 24, 8-Chloro-3-[3-(N,N-dimethylamino)phenyloxycarbonylamino]-2,4-dioxo-1-(3-methylbut-1-yl)-5-phenyl-2,3,4,5-tetrahydro-1H-1,5-benzodiazepine]: the “pKi CCK-A” value on CCK-A receptor is 5.89. Also, the Ki at CCK-B receptor was 3.39 nM.

As for `CC(C)CCN1C(=O)C(NC(=O)Oc2cccc(N(C)C)c2)C(=O)N(c2ccccc2F)c2ccccc21` (racemic) [Example 8, 3-[3-(N,N-dimethylamino)phenyloxycarbonylamino]-2,4-dioxo-5-(2-fluorophenyl)-1-(3-methylbut-1-yl)-2,3,4,5-tetrahydro-1H-1,5-benzodiazepine], the “pKi CCK-A” value at CCK-A receptor worked out at 6.38. Besides, the Ki on CCK-B receptor was 1.58 nM.

Consider `CC(C)C(=O)CN1C(=O)C(NC(=O)Oc2cccc(N(C)C)c2)C(=O)N(c2ccccc2)c2ccccc21` (stereo not drawn) [Example 4, 3-[3-(N,N-dimethylamino)phenyloxycarbonylamino-2,4-dioxo-1-(3-methyl-2-oxo)but-1-yl)-5-phenyl-2,3,4,5-tetrahydro-1H-1,5-benzodiazepine], for which the “pKi CCK-A” value at CCK-A receptor is 6.25. Besides, the Ki on CCK-B receptor is 3.09 nM.

As for `O=C(NC1C(=O)N(CCC2CCCC2)c2ccccc2N(c2ccccc2F)C1=O)Oc1ccccc1` (stereo not drawn) [Example 13], on CCK-A receptor, the “pKi CCK-A” value is listed as 6.25. The Ki at CCK-B receptor was 4.57 nM.

`CC(C)(C)CCN1C(=O)C(NC(=O)Oc2ccccc2)C(=O)N(c2ccccc2F)c2ccccc21` (stereo not drawn) [Example 7]: the “pKi CCK-A” value at CCK-A receptor came to 6.43. For the same molecule, the Ki on CCK-B receptor was 3.89 nM.
